Test results: patent publication EP0007672A1, “Isocyanoalkenes, process and useful intermediates for their preparation, pharmaceutical and fungicidal preparations containing those isocyanoalkenes and the use of the fungicidal preparations in agriculture” (GIST-BROCADES N.V., priority 1978, dated 1980)
≈ marks a conversion by molar mass, not a printed value. Read-outs that look alike come from different tables or passages of the source.

Tests used:
Assay in all cases: MIC (Minimum Inhibitory Concentration)
Format in all cases: cell-based
Rhizoctonia solani = conditions: read-out: MIC values
Fusarium solani = conditions: read-out: MIC values
[1] = system: Streptococcus haemolyticus; conditions: Streptococcus, read-out: MIC values
[2] = system: Trichophyton mentagrophytus
Trichophyton verrucosum = system: Trichophyton verrucosum
Candida albicans = system: Candida albicans
[3] = system: Trichophyton soudanese joyeux; conditions: read-out: MIC values
Trichophyton tonsurans = conditions: Trichophyton tonsurans, read-out: MIC values
[4] = system: Trichophyton schoenleinii; conditions: read-out: MIC values
Fusarium (bulb) = Fusarium (bulb) A 3252
Trichophyton equinum = system: Trichophyton equinum
Fusarium (tulip) = Fusarium (tulip) A 3253
Pasteurella multocida = conditions: Pasteurella multocida, read-out: MIC values
Trichophyton quickeaneum = conditions: read-out: MIC values
Trichophyton violoceum = conditions: read-out: MIC values
Trichophyton rubrum = system: Trichophyton rubrum
[5] = read-out: MIC values, Trichophyton mentagrophytus 367-68
[6] = read-out: MIC values, Trichophyton mentagrophytus 421-67
[7] = read-out: MIC values, Trichophyton mentagrophytus A 3252
[8] = read-out: MIC values, Trichophyton mentagrophytus R 177
[9] = read-out: MIC values, Trichophyton mentagrophytus R 178
[10] = read-out: MIC values, Trichophyton mentagrophytus RRL 305
[11] = read-out: MIC values, Candida albicans A 7
[12] = read-out: MIC values, Candida albicans A 3140
[13] = read-out: MIC values, Candida albicans A 3141
[14] = read-out: MIC values, Candida albicans A 3142
[15] = read-out: MIC values, Candida albicans A 3143
[16] = read-out: MIC values, Candida albicans A 3144
[17] = read-out: MIC values, Candida albicans A 3145
[18] = read-out: MIC values, Candida albicans A 3165
[19] = read-out: MIC values, Candida albicans A 3166
[20] = read-out: MIC values, Candida albicans A 3167
[21] = read-out: MIC values, Candida albicans A 3168
[22] = read-out: MIC values, Candida albicans A 3169
[23] = read-out: MIC values, Candida albicans A 3171
[24] = read-out: MIC values, Candida albicans A 3184
[25] = read-out: MIC values, Candida albicans A 3190
[26] = read-out: MIC values, Candida albicans A 3191
[27] = read-out: MIC values, Candida albicans A 3192
[28] = read-out: MIC values, Candida albicans A 3194
[29] = read-out: MIC values, Candida albicans A 3196
[30] = read-out: MIC values, Trichophyton equinum 182-76
[31] = read-out: MIC values, Trichophyton equinum 856-71
[32] = read-out: MIC values, Trichophyton rubrum 494-62
[33] = read-out: MIC values, Trichophyton rubrum A 810

SMILES: [C-]#[N+]C(=C1CCCC1)S(=O)(=O)c1ccc(C)cc1 [Example 9, a-cyclopentylidene-a-(4-toluenesulphonyl)-methylisocyanide]
- MIC (Rhizoctonia solani; Rhizoctonia solani): 1.5 µg/mL (≈ 5.74 µM)
- MIC (Fusarium solani; Fusarium solani): 12.5 µg/mL (≈ 47.8 µM)
- MIC [1]: 25 µg/mL (≈ 95.7 µM)
- MIC [2, 5]: 3 µg/mL (≈ 11.5 µM)
- MIC [2, 6]: 6 µg/mL (≈ 23 µM)
- MIC [2, 7]: 1.5 µg/mL (≈ 5.74 µM)
- MIC [2, 8]: 3 µg/mL (≈ 11.5 µM)
- MIC [2, 9]: 12.5 µg/mL (≈ 47.8 µM)
- MIC [2, 10]: 0.8 µg/mL (≈ 3.06 µM)
- MIC (Trichophyton verrucosum; read-out: MIC values, Trichophyton verrucosum 134-66): < 0.05 µg/mL
- MIC (Trichophyton verrucosum; read-out: MIC values, Trichophyton verrucosum A 2922): 0.4 µg/mL (≈ 1.53 µM)
- MIC (Candida albicans; [11]): 0.8 µg/mL (≈ 3.06 µM)
- MIC (Candida albicans; [12]): 1.5 µg/mL (≈ 5.74 µM)
- MIC (Candida albicans; [13]): 3 µg/mL (≈ 11.5 µM)
- MIC (Candida albicans; [14]): 1.5 µg/mL (≈ 5.74 µM)
- MIC (Candida albicans; [15]): 0.8 µg/mL (≈ 3.06 µM)
- MIC (Candida albicans; [16]): 1.5 µg/mL (≈ 5.74 µM)
- MIC (Candida albicans; [17]): 1.5 µg/mL (≈ 5.74 µM)
- MIC (Candida albicans; [18]): 3 µg/mL (≈ 11.5 µM)
- MIC (Candida albicans; [19]): 6 µg/mL (≈ 23 µM)
- MIC (Candida albicans; [20]): 3 µg/mL (≈ 11.5 µM)
- MIC (Candida albicans; [21]): 6 µg/mL (≈ 23 µM)
- MIC (Candida albicans; [22]): 3 µg/mL (≈ 11.5 µM)
- MIC (Candida albicans; [23]): 3 µg/mL (≈ 11.5 µM)
- MIC (Candida albicans; [24]): 1.5 µg/mL (≈ 5.74 µM)
- MIC (Candida albicans; [25]): 1.5 µg/mL (≈ 5.74 µM)
- MIC (Candida albicans; [26]): 0.8 µg/mL (≈ 3.06 µM)
- MIC (Candida albicans; [27]): 0.8 µg/mL (≈ 3.06 µM)
- MIC (Candida albicans; [28]): 0.8 µg/mL (≈ 3.06 µM)
- MIC (Candida albicans; [29]): 3 µg/mL (≈ 11.5 µM)
- MIC ([3]; Trichophyton): 6 µg/mL (≈ 23 µM)
- MIC (Trichophyton tonsurans): 6 µg/mL (≈ 23 µM)
- MIC ([4]; Trichophyton schoenleinii): 0.4 µg/mL (≈ 1.53 µM)
- MIC (Fusarium (bulb)): 25 µg/mL (≈ 95.7 µM)
- MIC (Trichophyton equinum; [30]): 3 µg/mL (≈ 11.5 µM)
- MIC (Trichophyton equinum; read-out: MIC values, Trichophyton equinum 441-51): 0.1 µg/mL (≈ 0.383 µM)
- MIC (Trichophyton equinum; [31]): < 0.05 µg/mL
- MIC (Fusarium (tulip)): 12.5 µg/mL (≈ 47.8 µM)
- MIC (Pasteurella multocida): 3 µg/mL (≈ 11.5 µM)
- MIC (Trichophyton quickeaneum; Trichophyton): 1.5 µg/mL (≈ 5.74 µM)
- MIC (Trichophyton violoceum; Trichophyton): 0.4 µg/mL (≈ 1.53 µM)
- MIC (Trichophyton rubrum; read-out: MIC values, Trichophyton rubrum 218-65): 0.8 µg/mL (≈ 3.06 µM)
- MIC (Trichophyton rubrum; [32]): 1.5 µg/mL (≈ 5.74 µM)
- MIC (Trichophyton rubrum; [33]): 0.1 µg/mL (≈ 0.383 µM)

SMILES: [C-]#[N+]C(=C1CCCCC1)S(=O)(=O)c1ccc(C)cc1 [Example 7, a-cyclohexylidene-a-(4-toluenesulphonyl)-methylisocyanide]
- MIC (Rhizoctonia solani; Rhizoctonia solani): 1.5 µg/mL (≈ 5.45 µM)
- MIC (Fusarium solani; Fusarium solani): 12.5 µg/mL (≈ 45.4 µM)
- MIC [2, 5]: 0.8 µg/mL (≈ 2.91 µM)
- MIC [2, 6]: 1.5 µg/mL (≈ 5.45 µM)
- MIC [2, 7]: 0.8 µg/mL (≈ 2.91 µM)
- MIC [2, 8]: 3 µg/mL (≈ 10.9 µM)
- MIC [2, 9]: 12.5 µg/mL (≈ 45.4 µM)
- MIC [2, 10]: 1.5 µg/mL (≈ 5.45 µM)
- MIC (Candida albicans; [11]): 0.8 µg/mL (≈ 2.91 µM)
- MIC (Candida albicans; [12]): 3 µg/mL (≈ 10.9 µM)
- MIC (Candida albicans; [13]): 12.5 µg/mL (≈ 45.4 µM)
- MIC (Candida albicans; [14]): 12.5 µg/mL (≈ 45.4 µM)
- MIC (Candida albicans; [15]): 6 µg/mL (≈ 21.8 µM)
- MIC (Candida albicans; [16]): 6 µg/mL (≈ 21.8 µM)
- MIC (Candida albicans; [17]): 6 µg/mL (≈ 21.8 µM)
- MIC (Candida albicans; [18]): 6 µg/mL (≈ 21.8 µM)
- MIC (Candida albicans; [19]): 6 µg/mL (≈ 21.8 µM)
- MIC (Candida albicans; [20]): 6 µg/mL (≈ 21.8 µM)
- MIC (Candida albicans; [21]): 6 µg/mL (≈ 21.8 µM)
- MIC (Candida albicans; [22]): 6 µg/mL (≈ 21.8 µM)
- MIC (Candida albicans; [23]): 6 µg/mL (≈ 21.8 µM)
- MIC (Candida albicans; [24]): 3 µg/mL (≈ 10.9 µM)
- MIC (Candida albicans; [25]): 3 µg/mL (≈ 10.9 µM)
- MIC (Candida albicans; [26]): 6 µg/mL (≈ 21.8 µM)
- MIC (Candida albicans; [27]): 6 µg/mL (≈ 21.8 µM)
- MIC (Candida albicans; [28]): 6 µg/mL (≈ 21.8 µM)
- MIC (Candida albicans; [29]): 12.5 µg/mL (≈ 45.4 µM)
- MIC ([3]; Trichophyton): 12.5 µg/mL (≈ 45.4 µM)
- MIC ([4]; Trichophyton schoenleinii): 0.2 µg/mL (≈ 0.726 µM)
- MIC (Fusarium (bulb)): 18.8 µg/mL (≈ 68.3 µM)
- MIC (Trichophyton equinum; [30]): 3 µg/mL (≈ 10.9 µM)
- MIC (Trichophyton equinum; [31]): 3 µg/mL (≈ 10.9 µM)
- MIC (Fusarium (tulip)): 12.5 µg/mL (≈ 45.4 µM)
- MIC (Trichophyton quickeaneum; Trichophyton): 0.8 µg/mL (≈ 2.91 µM)
- MIC (Trichophyton violoceum; Trichophyton): 0.2 µg/mL (≈ 0.726 µM)
- MIC (Trichophyton rubrum; [32]): 0.8 µg/mL (≈ 2.91 µM)
- MIC (Trichophyton rubrum; [33]): 0.8 µg/mL (≈ 2.91 µM)

SMILES: [C-]#[N+]C(=Cc1ccccc1)S(=O)(=O)c1ccc(C)cc1 [Example 1, 1-isocyano-2-phenyl-1-(4-toluenesulphonyl)-ethene]
- MIC (Rhizoctonia solani; Rhizoctonia solani 200-25): 4.5 µg/mL (≈ 15.9 µM)
- MIC (Fusarium solani; Fusarium solani A 3245): 50 µg/mL (≈ 176 µM)
- MIC ([2]; Trichophyton mentagrophytus 367-68, read-out: MIC values): 1.5 µg/mL (≈ 5.29 µM)
- MIC ([2]; Trichophyton mentagrophytus 421-67, read-out: MIC values): 1.5 µg/mL (≈ 5.29 µM)
- MIC ([2]; Trichophyton mentagrophytus A 3252, read-out: MIC values): 1.5 µg/mL (≈ 5.29 µM)
- MIC ([2]; Trichophyton mentagrophytus R 177, read-out: MIC values): 6 µg/mL (≈ 21.2 µM)
- MIC ([2]; Trichophyton mentagrophytus R 178, read-out: MIC values): > 100 µg/mL
- MIC ([2]; Trichophyton mentagrophytus RRL 305, read-out: MIC values): 6 µg/mL (≈ 21.2 µM)
- MIC (Candida albicans; Candida albicans A 7, read-out: MIC values): 1.5 µg/mL (≈ 5.29 µM)
- MIC (Candida albicans; Candida albicans A 3140, read-out: MIC values): 12.5 µg/mL (≈ 44.1 µM)
- MIC (Candida albicans; Candida albicans A 3141, read-out: MIC values): 12.5 µg/mL (≈ 44.1 µM)
- MIC (Candida albicans; Candida albicans A 3142, read-out: MIC values): 12.5 µg/mL (≈ 44.1 µM)
- MIC (Candida albicans; Candida albicans A 3143, read-out: MIC values): 12.5 µg/mL (≈ 44.1 µM)
- MIC (Candida albicans; Candida albicans A 3144, read-out: MIC values): 12.5 µg/mL (≈ 44.1 µM)
- MIC (Candida albicans; Candida albicans A 3145, read-out: MIC values): 12.5 µg/mL (≈ 44.1 µM)
- MIC (Candida albicans; Candida albicans A 3165, read-out: MIC values): 25 µg/mL (≈ 88.2 µM)
- MIC (Candida albicans; Candida albicans A 3166, read-out: MIC values): 12.5 µg/mL (≈ 44.1 µM)
- MIC (Candida albicans; Candida albicans A 3167, read-out: MIC values): 25 µg/mL (≈ 88.2 µM)
- MIC (Candida albicans; Candida albicans A 3168, read-out: MIC values): 12.5 µg/mL (≈ 44.1 µM)
- MIC (Candida albicans; Candida albicans A 3169, read-out: MIC values): 12.5 µg/mL (≈ 44.1 µM)
- MIC (Candida albicans; Candida albicans A 3171, read-out: MIC values): 12.5 µg/mL (≈ 44.1 µM)
- MIC (Candida albicans; Candida albicans A 3184, read-out: MIC values): 12.5 µg/mL (≈ 44.1 µM)
- MIC (Candida albicans; Candida albicans A 3190, read-out: MIC values): 6 µg/mL (≈ 21.2 µM)
- MIC (Candida albicans; Candida albicans A 3191, read-out: MIC values): 12.5 µg/mL (≈ 44.1 µM)
- MIC (Candida albicans; Candida albicans A 3192, read-out: MIC values): 6 µg/mL (≈ 21.2 µM)
- MIC (Candida albicans; Candida albicans A 3194, read-out: MIC values): 25 µg/mL (≈ 88.2 µM)
- MIC (Candida albicans; Candida albicans A 3196, read-out: MIC values): 12.5 µg/mL (≈ 44.1 µM)
- MIC ([3]; Trichophyton soudanese joyeux 440-63): 12.5 µg/mL (≈ 44.1 µM)
- MIC ([4]; Trichophyton schoenleinii 435-63): 0.1 µg/mL (≈ 0.353 µM)
- MIC (Fusarium (bulb)): > 100 µg/mL
- MIC (Trichophyton equinum; Trichophyton equinum 182-76, read-out: MIC values): 3 µg/mL (≈ 10.6 µM)
- MIC (Trichophyton equinum; Trichophyton equinum 856-71, read-out: MIC values): 3 µg/mL (≈ 10.6 µM)
- MIC (Fusarium (tulip)): 50 µg/mL (≈ 176 µM)
- MIC (Trichophyton quickeaneum; Trichophyton quickeaneum A 2040): 3 µg/mL (≈ 10.6 µM)
- MIC (Trichophyton violoceum; Trichophyton violoceum 442-62): 0.1 µg/mL (≈ 0.353 µM)
- MIC (Trichophyton rubrum; Trichophyton rubrum 494-62, read-out: MIC values): 0.1 µg/mL (≈ 0.353 µM)
